Legend:
[1] = molecular target: T1, PTPN2 (Homo sapiens, UniProt P17706); assay: HiBiT-Degradation 293T.109 PTPN2 (Nano-Glo HiBiT Lytic Assay); format: cell-based; settings: 293T.109 (HiBiT-PTPN2) cells, 24.0 hours
T1 construct: expressed in transfected cells; host or cells: 293T (293T.109 HiBiT-PTPN2 line; parental 293T WT from ATCC)
T1 sequence (P17706 1-415): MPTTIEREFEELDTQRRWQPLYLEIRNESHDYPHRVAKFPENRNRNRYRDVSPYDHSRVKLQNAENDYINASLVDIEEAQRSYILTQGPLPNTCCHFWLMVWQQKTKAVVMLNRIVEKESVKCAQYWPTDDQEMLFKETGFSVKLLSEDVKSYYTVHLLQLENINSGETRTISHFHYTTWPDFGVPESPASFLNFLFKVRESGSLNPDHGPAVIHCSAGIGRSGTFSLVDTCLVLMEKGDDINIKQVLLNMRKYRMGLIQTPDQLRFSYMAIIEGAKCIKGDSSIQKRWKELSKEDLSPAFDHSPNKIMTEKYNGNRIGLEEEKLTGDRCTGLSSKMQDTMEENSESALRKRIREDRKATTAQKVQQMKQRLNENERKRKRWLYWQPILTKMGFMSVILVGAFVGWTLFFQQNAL
Method in brief: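 293T cells ectopically expressing N-terminally HiBiT-tagged PTPN2 were seeded at 5000 cells/well. They were treated with an 11-point half-log titration from 10 μM, in duplicate, for 24 hours at 37° C., 5% CO2. Remaining tagged PTPN2 was quantified by lytic HiBiT luminescence against untreated and no-reagent controls.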

[2] = system: PTPN2; assay: HiBiT-Degradation B16F10.4 PTPN2; format: cell-based; settings: B16F10.4 cells, 24.0 hours

Row | SMILES | DC50 [1] [nM] | DC50 [2] [nM]
1 | Cn1c(=O)n(C2CCC(=O)NC2=O)c2ccc(C3CCN(CC(=O)N4CC(c5ccc6c(F)c(N7CC(=O)NS7(=O)=O)c(O)cc6c5)C4)CC3)cc21 (stereo not drawn) [Example 115, 3-(5-(1-(2-(3-(6-(1,1-dioxido-4-oxo-1,2,5-thiadiazolidin-2-yl)-5-fluoro-7-hydroxynaphthalen-2-yl)azetidin-1-yl)-2-oxoethyl)piperidin-4-yl)-3-methyl-2-oxo-2,3-dihydro-1H-benzo[d]imidazol-1-yl)piperidine-2,6-dione] | 200 to 1000 | 200 to 1000
2 | O=C1CCC(N2Cc3c(NCC(=O)N4CCC(C(=O)Nc5ccc6c(F)c(N7CC(=O)NS7(=O)=O)c(O)cc6c5)CC4)cccc3C2=O)C(=O)N1 (stereo not drawn) [Example 65] | 200 to 1000 | 200 to 1000
3 | O=C1CCC(N2C(=O)c3cccc(NCc4cn(C5CN(C(=O)Nc6ccc7c(F)c(N8CC(=O)NS8(=O)=O)c(O)cc7c6)C5)nn4)c3C2=O)C(=O)N1 (stereo not drawn) [Example 17, 3-[4-[[[2-(2,6-dioxo-3-piperidyl)-1,3-dioxo-isoindolin-4-yl]amino]methyl]triazol-1-yl]-N-[5-fluoro-7-hydroxy-6-(1,1,4-trioxo-1,2,5-thiadiazolidin-2-yl)-2-naphthyl]azetidine-1-carboxamide] | 50 to 200 | ≥ 1000
4 | Cn1c(=O)n(C2CCC(=O)NC2=O)c2ccc(-c3ccc(CC(=O)Nc4ccc5c(F)c(N6CC(=O)NS6(=O)=O)c(O)cc5c4)cc3F)cc21 (stereo not drawn) [Example 118, N-(6-(1,1-dioxido-4-oxo-1,2,5-thiadiazolidin-2-yl)-5-fluoro-7-hydroxynaphthalen-2-yl)-2-(4-(1-(2,6-dioxopiperidin-3-yl)-3-methyl-2-oxo-2,3-dihydro-1H-benzo[d]imidazol-5-yl)-3-fluorophenyl)acetamide] | 50 to 200 | 10 to 50
5 | Cn1c(=O)n(C2CCC(=O)NC2=O)c2ccc(C3CCN(C(=O)NCCOc4ccc5cc(O)c(N6CC(=O)NS6(=O)=O)c(F)c5c4)CC3)cc21 (stereo not drawn) [Example 31] | 200 to 1000 | ≥ 1000
6 | Cn1c(=O)n(C2CCC(=O)NC2=O)c2ccc(C3CCN(Cc4ccn(-c5ccc6c(F)c(N7CC(=O)NS7(=O)=O)c(O)cc6c5)n4)CC3)cc21 (stereo not drawn) [Example 154, 3-(5-(1-((1-(6-(1,1-dioxido-4-oxo-1,2,5-thiadiazolidin-2-yl)-5-fluoro-7-hydroxynaphthalen-2-yl)-1H-pyrazol-3-yl)methyl)piperidin-4-yl)-3-methyl-2-oxo-2,3-dihydro-1H-benzo[d]imidazol-1-yl)piperidine-2,6-dione] | 200 to 1000 | ≥ 1000
7 | O=C1CCC(N2Cc3cc(NCc4cn(CCC(=O)Nc5ccc6c(F)c(N7CC(=O)NS7(=O)=O)c(O)cc6c5)nn4)ccc3C2=O)C(=O)N1 (stereo not drawn) [Example 15, 3-[4-[[[2-(2,6-dioxo-3-piperidyl)-1-oxo-isoindolin-5-yl]amino]methyl]triazol-1-yl]-N-[5-fluoro-7-hydroxy-6-(1,1,4-trioxo-1,2,5-thiadiazolidin-2-yl)-2-naphthyl]propanamide] | 200 to 1000 | 200 to 1000
8 | O=C(CCOCCC(=O)N1CCN(c2ccc(NC3CCC(=O)NC3=O)cc2)CC1)NCCOc1ccc2cc(O)c(N3CC(=O)NS3(=O)=O)c(F)c2c1 (stereo not drawn) [Example 43] | ≥ 1000 | ≥ 1000
9 | Cn1c(=O)n(C2CCC(=O)NC2=O)c2ccc(C3CCN(CCS(=O)(=O)N4CC=C(c5ccc6cc(O)c(N7CC(=O)NS7(=O)=O)c(F)c6c5)C4)CC3)cc21 (stereo not drawn) [Example 107, 3-(5-(1-(2-((3-(7-(1,1-dioxido-4-oxo-1,2,5-thiadiazolidin-2-yl)-8-fluoro-6-hydroxynaphthalen-2-yl)-2,5-dihydro-1H-pyrrol-1-yl)sulfonyl)ethyl)piperidin-4-yl)-3-methyl-2-oxo-2,3-dihydro-1H-benzo[d]imidazol-1-yl)piperidine-2,6-dione] | 50 to 200 | 50 to 200
10 | Cn1c(=O)n(C2CCC(=O)NC2=O)c2ccc(N3CCC(CC(=O)N4CCC(c5ccc6cc(O)c(N7CC(=O)NS7(=O)=O)c(F)c6c5)CC4)CC3)cc21 (stereo not drawn) [Example 124, 3-[5-[4-[2-[4-[8-fluoro-6-hydroxy-7-(1,1,4-trioxo-1,2,5-thiadiazolidin-2-yl)-2-naphthyl]-1-piperidyl]-2-oxo-ethyl]-1-piperidyl]-3-methyl-2-oxo-benzimidazol-1-yl]piperidine-2,6-dione] | 200 to 1000 | 200 to 1000
11 | O=C1CCC(N2C(=O)c3ccc(NCc4cn(CCC(=O)Nc5ccc6c(F)c(N7CC(=O)NS7(=O)=O)c(O)cc6c5)nn4)cc3C2=O)C(=O)N1 (stereo not drawn) [Example 14, N-(6-(1,1-dioxido-4-oxo-1,2,5-thiadiazolidin-2-yl)-5-fluoro-7-hydroxynaphthalen-2-yl)-3-(4-(((2-(2,6-dioxopiperidin-3-yl)-1,3-dioxoisoindolin-5-yl)amino)methyl)-1H-1,2,3-triazol-1-yl)propanamide] | 200 to 1000 | 200 to 1000

Further lines, results first:

Row | DC50 [1] [nM] | DC50 [2] [nM] | SMILES
12 | 10 to 50 | 50 to 200 | Cn1c(=O)n(C2CCC(=O)NC2=O)c2ccc(C3CCN(CCC(=O)N4CC[C@H](c5ccc6cc(O)c(N7CC(=O)NS7(=O)=O)c(F)c6c5)C4)CC3)cc21 (stereo partly drawn) [Example 144]
13 | 50 to 200 | 200 to 1000 | O=C1CCC(N2Cc3c(OCC(=O)N4CCC(C(=O)NCCOc5ccc6cc(O)c(N7CC(=O)NS7(=O)=O)c(F)c6c5)CC4)cccc3C2=O)C(=O)N1 (stereo not drawn) [Example 3, 1-[2-[2-(2,6-dioxo-3-piperidyl)-1-oxo-isoindolin-4-yl]oxyacetyl]-N-[2-[[8-fluoro-6-hydroxy-7-(1,1,4-trioxo-1,2,5-thiadiazolidin-2-yl)-2-naphthyl]oxy]ethyl]piperidine-4-carboxamide]
14 | 50 to 200 | 50 to 200 | Cn1c(=O)n(C2CCC(=O)NC2=O)c2ccc(-c3ccc(CCC(=O)Nc4ccc5c(F)c(N6CC(=O)NS6(=O)=O)c(O)cc5c4)cc3)cc21 (stereo not drawn) [Example 116, N-(6-(1,1-dioxido-4-oxo-1,2,5-thiadiazolidin-2-yl)-5-fluoro-7-hydroxynaphthalen-2-yl)-3-(4-(1-(2,6-dioxopiperidin-3-yl)-3-methyl-2-oxo-2,3-dihydro-1H-benzo[d]imidazol-5-yl)phenyl)propanamide]
15 | 50 to 200 | 50 to 200 | Cn1nc(C2CCC(=O)NC2=O)c2ccc(C3CCN(CC(=O)Nc4ccc5c(F)c(N6CC(=O)NS6(=O)=O)c(O)cc5c4)CC3(F)F)cc21 (stereo not drawn) [Example 114, N-(6-(1,1-dioxido-4-oxo-1,2,5-thiadiazolidin-2-yl)-5-fluoro-7-hydroxynaphthalen-2-yl)-2-(4-(3-(2,6-dioxopiperidin-3-yl)-1-methyl-1H-indazol-6-yl)-3,3-difluoropiperidin-1-yl)acetamide]
16 | 10 to 50 | 50 to 200 | Cn1nc(C2CCC(=O)NC2=O)c2ccc(C3CCN(C4CC(C(=O)Nc5ccc6c(F)c(N7CC(=O)NS7(=O)=O)c(O)cc6c5)C4)CC3(F)F)cc21 (stereo not drawn) [Example 117, N-(6-(1,1-dioxido-4-oxo-1,2,5-thiadiazolidin-2-yl)-5-fluoro-7-hydroxynaphthalen-2-yl)-3-(4-(3-(2,6-dioxopiperidin-3-yl)-1-methyl-1H-indazol-6-yl)-3,3-difluoropiperidin-1-yl)cyclobutanecarboxamide]
17 | 50 to 200 | 10 to 50 | Cn1c(=O)n(C2CCC(=O)NC2=O)c2ccc(Nc3ccc(CC(=O)Nc4ccc5c(F)c(N6CC(=O)NS6(=O)=O)c(O)cc5c4)cn3)cc21 (stereo not drawn) [Example 168, N-(6-(1,1-dioxido-4-oxo-1,2,5-thiadiazolidin-2-yl)-5-fluoro-7-hydroxynaphthalen-2-yl)-2-(6-((1-(2,6-dioxopiperidin-3-yl)-3-methyl-2-oxo-2,3-dihydro-1H-benzo[d]imidazol-5-yl)amino)pyridin-3-yl)acetamide]
18 | 10 to 50 | 50 to 200 | Cn1c(=O)n([C@H]2CCC(=O)NC2=O)c2ccc(C3CCN(CC(=O)NCCOc4ccc5cc(O)c(N6CC(=O)NS6(=O)=O)c(F)c5c4)CC3)cc21 [Example 93, 2-[4-[1-[(3S)-2,6-dioxo-3-piperidyl]-3-methyl-2-oxo-benzimidazol-5-yl]-1-piperidyl]-N-[2-[[8-fluoro-6-hydroxy-7-(1,1,4-trioxo-1,2,5-thiadiazolidin-2-yl)-2-naphthyl]oxy]ethyl]acetamide]
19 | 10 to 50 | 50 to 200 | Cn1c(=O)n(C2CCC(=O)NC2=O)c2ccc(C3CCN(CCN4CC[C@@H](COc5ccc6cc(O)c(N7CC(=O)NS7(=O)=O)c(F)c6c5)C4)CC3)cc21 (stereo partly drawn) [Example 149, 3-[5-[1-[2-[(3R)-3-[[8-fluoro-6-hydroxy-7-(1,1,4-trioxo-1,2,5-thiadiazolidin-2-yl)-2-naphthyl]oxymethyl]pyrrolidin-1-yl]ethyl]-4-piperidyl]-3-methyl-2-oxo-benzimidazol-1-yl]piperidine-2,6-dione]
20 | 10 to 50 | 50 to 200 | Cn1c(=O)n(C2CCC(=O)NC2=O)c2ccc(N3CCC(CCNC(=O)Nc4ccc5c(F)c(N6CC(=O)NS6(=O)=O)c(O)cc5c4)CC3)cc21 (stereo not drawn) [Example 181]
21 | 10 to 50 | 200 to 1000 | Cn1nc(C2CCC(=O)NC2=O)c2ccc(C3CCN(CCn4cc(-c5ccc6c(F)c(N7CC(=O)NS7(=O)=O)c(O)cc6c5)cn4)CC3)cc21 (stereo not drawn) [Example 152, 3-[6-[1-[2-[4-[5-fluoro-7-hydroxy-6-(1,1,4-trioxo-1,2,5-thiadiazolidin-2-yl)-2-naphthyl]pyrazol-1-yl]ethyl]-4-piperidyl]-1-methyl-indazol-3-yl]piperidine-2,6-dione]
